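Exposure lasted 48 hours, with cells grown in 96-well plates and compounds tested at five concentrations. At the GI50, growth is halved.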 The source made the active and inactive calls. Cut-off read from the data, not from the text of the source: active = GI50 up to about 1.1 µM and inactive = higher. Starred links: 1 amine or outer side, 2 acyl side, 3 side chain; linkers in the order of their positions; H or OH if unused. Positions of bridges follow the written chain, without caps; N, C: chain ends. Non-standard residues stand in square brackets, D forms with d. Residues, ends and D or L forms follow the SMILES beside them. *: point of attachment. X40 = CC[C@H](C)[C@@H](N[*:1])[C@@H](O)CC(=O)[*:2]; NMeY = CN[C@@H](Cc1ccc(O)cc1)C(=O)O; dNMeL = CN[C@H](CC(C)C)C(=O)O; Hiv = CC(C)[C@H](O)C(=O)O; Pyruvoyl = CC(=O)C(=O)*
Experiments:
Assay in all cases: growth of human tumour cells (NCI), 48 h
OVCAR-8 = test system: OVCAR-8
RPMI-8226 = test system: RPMI-8226
SF-268 = test system: SF-268
SF-295 = test system: SF-295
A498 = test system: A498
U-251 = test system: U-251
UO-31 = test system: UO-31
HCC 2998 = test system: HCC 2998
ACHN = test system: ACHN
LXFL 529 = test system: LXFL 529
HOP-62 = test system: HOP-62
NCI-H226 = test system: NCI-H226
SK-OV-3 = test system: SK-OV-3
HCT-116 = test system: HCT-116
LOX IMVI = test system: LOX IMVI
UACC-62 = test system: UACC-62
SR = test system: SR
MDA-MB-231 = test system: MDA-MB-231
PC-3 = test system: PC-3
BT-549 = test system: BT-549

Row | SMILES | GI50 (OVCAR-8) | GI50 (RPMI-8226) | GI50 (SF-268) | GI50 (SF-295) | GI50 (A498) | GI50 (U-251) | GI50 (UO-31) | GI50 (HCC 2998) | GI50 (ACHN) | GI50 (LXFL 529) | GI50 (HOP-62) | GI50 (NCI-H226) | GI50 (SK-OV-3) | GI50 (HCT-116) | GI50 (LOX IMVI) | GI50 (UACC-62) | GI50 (SR) | GI50 (MDA-MB-231) | GI50 (PC-3) | GI50 (BT-549)
1 | COc1ccc(C[C@@H]2Cc3cc(OC)c(OC)cc3CN2C)cc1 | > 100 µM (inactive) | > 100 µM (inactive) | > 100 µM (inactive) | 57 µM (inactive) | > 100 µM (inactive) | > 100 µM (inactive) | > 100 µM (inactive) | > 100 µM (inactive) | > 100 µM (inactive) | > 100 µM (inactive) | > 100 µM (inactive) | – | – | – | – | – | – | – | – | –
2 | CCOc1ccc(/N=N/c2ccc3oc(=O)c(/C(C)=N/NC(=O)CC(=O)Nc4cccc(OC)c4)cc3c2)cc1 | 18.7 µM (inactive) | 8.53 µM (inactive) | 13.3 µM (inactive) | 19 µM (inactive) | – | 10.6 µM (inactive) | 12.3 µM (inactive) | 15.6 µM (inactive) | 21.3 µM (inactive) | 11 µM (inactive) | 17.9 µM (inactive) | > 39.7 µM (inactive) | 38.8 µM (inactive) | 10.2 µM (inactive) | 17.2 µM (inactive) | 13.2 µM (inactive) | 2.64 µM (inactive) | – | – | –
3 | CCOP(=O)(Cc1ccc(CP(=O)(OCC)OCC)n1C)OCC | > 100 µM (inactive) | > 100 µM (inactive) | > 100 µM (inactive) | > 100 µM (inactive) | – | > 100 µM (inactive) | > 100 µM (inactive) | > 100 µM (inactive) | > 100 µM (inactive) | > 100 µM (inactive) | > 100 µM (inactive) | – | > 100 µM (inactive) | – | > 100 µM (inactive) | > 100 µM (inactive) | – | – | – | –
4 | O=S(=O)(OI(OI(OS(=O)(=O)C(F)(F)F)c1ccccc1)c1ccccc1)C(F)(F)F | 48.8 µM (inactive) | 11.6 µM (inactive) | 31.3 µM (inactive) | 21.7 µM (inactive) | > 100 µM (inactive) | > 100 µM (inactive) | 47.2 µM (inactive) | > 100 µM (inactive) | 52.1 µM (inactive) | 26.1 µM (inactive) | 90.8 µM (inactive) | 58.6 µM (inactive) | – | 23.7 µM (inactive) | 20 µM (inactive) | 64.4 µM (inactive) | – | – | – | –
5 | Cc1ccc(C2=CC(=O)c3ccccc3C2=O)n1-c1ccccc1 | > 100 µM (inactive) | 36.7 µM (inactive) | > 100 µM (inactive) | > 100 µM (inactive) | – | 46.7 µM (inactive) | – | > 100 µM (inactive) | – | 72.4 µM (inactive) | > 100 µM (inactive) | 7.67 µM (inactive) | > 100 µM (inactive) | 62.1 µM (inactive) | > 100 µM (inactive) | 41.9 µM (inactive) | – | – | – | –
6 | CC(/C(=N/NC(=O)C(N)=O)c1c(Cl)ccc(Cl)c1O)C1(O)C(=O)Nc2ccccc21 (stereo unspecified) | 29.7 µM (inactive) | – | > 100 µM (inactive) | > 100 µM (inactive) | 17.8 µM (inactive) | 50.1 µM (inactive) | 38 µM (inactive) | 65.3 µM (inactive) | 26.5 µM (inactive) | 32.9 µM (inactive) | > 100 µM (inactive) | 29.3 µM (inactive) | > 100 µM (inactive) | 41 µM (inactive) | 30.1 µM (inactive) | 49.1 µM (inactive) | – | – | – | –
7 | O=c1c2cc(Br)ccc2nc(-c2ccccc2Cl)n1NCC1(O)OCC(O)C(O)C1O (stereo unspecified) | > 100 µM (inactive) | 99.1 µM (inactive) | > 100 µM (inactive) | > 100 µM (inactive) | > 100 µM (inactive) | > 100 µM (inactive) | > 100 µM (inactive) | – | > 100 µM (inactive) | 82.8 µM (inactive) | > 100 µM (inactive) | 0.434 µM (active) | > 100 µM (inactive) | > 100 µM (inactive) | > 100 µM (inactive) | > 100 µM (inactive) | 35.6 µM (inactive) | – | – | –
8 | COc1c(C(=O)c2ccc([N+](=O)[O-])cc2)cc(C(C)(C)C)cc1C(C)(C)C | 52.7 µM (inactive) | 12.6 µM (inactive) | 34.4 µM (inactive) | 39.1 µM (inactive) | 55.8 µM (inactive) | 19.1 µM (inactive) | 40.8 µM (inactive) | 24.9 µM (inactive) | 31.3 µM (inactive) | 31.6 µM (inactive) | 49.5 µM (inactive) | – | > 100 µM (inactive) | 18.8 µM (inactive) | 12.3 µM (inactive) | 16.7 µM (inactive) | 17.1 µM (inactive) | – | – | –
9 | COc1cc2ccn3c4cc(OC)c(OC)cc4cc3c2cc1OC | > 100 µM (inactive) | 5.6 µM (inactive) | > 100 µM (inactive) | > 100 µM (inactive) | > 100 µM (inactive) | > 100 µM (inactive) | > 100 µM (inactive) | > 100 µM (inactive) | > 100 µM (inactive) | 78.7 µM (inactive) | > 100 µM (inactive) | > 100 µM (inactive) | > 100 µM (inactive) | 32.8 µM (inactive) | – | > 100 µM (inactive) | > 100 µM (inactive) | – | – | –
10 | CCCCC1(C)C=C/C(=C2/C(=O)O/C(=C\C(=O)O)C2=O)O1 (stereo unspecified) | > 100 µM (inactive) | > 100 µM (inactive) | – | > 100 µM (inactive) | > 100 µM (inactive) | > 100 µM (inactive) | > 100 µM (inactive) | – | > 100 µM (inactive) | > 100 µM (inactive) | > 100 µM (inactive) | > 100 µM (inactive) | > 100 µM (inactive) | > 100 µM (inactive) | > 100 µM (inactive) | > 100 µM (inactive) | > 100 µM (inactive) | – | – | –
11 | O=[N+]([O-])c1cccc(C2ON2C2CCCCC2)c1 (stereo unspecified) | 17.6 µM (inactive) | 2.94 µM (inactive) | 23.3 µM (inactive) | > 100 µM (inactive) | 27.4 µM (inactive) | 3.98 µM (inactive) | 22.6 µM (inactive) | 17.2 µM (inactive) | 17.5 µM (inactive) | 20.7 µM (inactive) | 31.1 µM (inactive) | – | 35.2 µM (inactive) | 13.5 µM (inactive) | – | 20.4 µM (inactive) | 2.4 µM (inactive) | – | – | –
12 | CCOC(=O)/C(C#N)=C\C=C1/C=CN=C2NCCN21 | > 100 µM (inactive) | > 100 µM (inactive) | > 100 µM (inactive) | > 100 µM (inactive) | – | > 100 µM (inactive) | > 100 µM (inactive) | > 100 µM (inactive) | 80.9 µM (inactive) | > 100 µM (inactive) | > 100 µM (inactive) | > 100 µM (inactive) | > 100 µM (inactive) | > 100 µM (inactive) | > 100 µM (inactive) | > 100 µM (inactive) | > 100 µM (inactive) | – | – | –
13 | Cc1cccc(C)c1CO | > 100 µM (inactive) | > 100 µM (inactive) | > 100 µM (inactive) | > 100 µM (inactive) | – | > 100 µM (inactive) | > 100 µM (inactive) | > 100 µM (inactive) | > 100 µM (inactive) | > 100 µM (inactive) | > 100 µM (inactive) | > 100 µM (inactive) | > 100 µM (inactive) | > 100 µM (inactive) | > 100 µM (inactive) | > 100 µM (inactive) | > 100 µM (inactive) | – | – | –
14 | OCc1c[te]c(-c2ccccc2)c1 | 34.4 µM (inactive) | 24 µM (inactive) | – | 2.25 µM (inactive) | 92.3 µM (inactive) | 34.6 µM (inactive) | 23.3 µM (inactive) | > 100 µM (inactive) | 53.3 µM (inactive) | > 100 µM (inactive) | 32.2 µM (inactive) | 24.9 µM (inactive) | > 100 µM (inactive) | 17.5 µM (inactive) | – | 31.3 µM (inactive) | – | – | – | –
15 | C(=N\Nc1ccccc1)/c1nc2ccccc2nc1/C=N/Nc1ccccc1 | 6.75 µM (inactive) | – | 13.1 µM (inactive) | 16.2 µM (inactive) | 16.6 µM (inactive) | – | 32.2 µM (inactive) | 8.02 µM (inactive) | 11.8 µM (inactive) | 11 µM (inactive) | 15.9 µM (inactive) | 18 µM (inactive) | 22 µM (inactive) | 12.7 µM (inactive) | 9.25 µM (inactive) | 12.9 µM (inactive) | 19.9 µM (inactive) | – | – | –
16 | COc1cc(C2C(C(=O)Nc3ccccc3)=C(C)NC(C)=C2C(=O)Nc2ccccc2)ccc1O | 30.1 µM (inactive) | 26.4 µM (inactive) | > 100 µM (inactive) | 49.9 µM (inactive) | > 100 µM (inactive) | 48.9 µM (inactive) | 97.1 µM (inactive) | 27 µM (inactive) | 98.9 µM (inactive) | 24.3 µM (inactive) | > 100 µM (inactive) | 49.3 µM (inactive) | – | 34.5 µM (inactive) | > 10 µM (inactive) | – | 25.9 µM (inactive) | – | – | –
17 | CC[C@H](C)[C@H]1NC(=O)[C@@H](NC(=O)[C@@H](CC(C)C)N(C)C(=O)[C@@H]2CCCN2C(=O)C(C)=O)[C@@H](C)OC(=O)[C@H](Cc2ccc(OC)cc2)N(C)C(=O)[C@@H]2CCCN2C(=O)[C@H](CC(C)C)NC(=O)[C@H](C(C)C)OC(=O)C[C@@H]1O (Pyruvoyl-P[dNMeL]T[X40][Hiv]LP[NMeY](Me); ester 3-C) | 0.006 µM (active) | 0.00545 µM (active) | 0.00569 µM (active) | 0.00718 µM (active) | 0.00538 µM (active) | 0.00239 µM (active) | 0.01 µM (active) | 0.00261 µM (active) | 0.0203 µM (active) | – | 0.0046 µM (active) | 0.0159 µM (active) | 0.00528 µM (active) | 0.00222 µM (active) | 0.00428 µM (active) | 0.00374 µM (active) | 0.001 µM (active) | 13.8 nM (active) | 4.6 nM (active) | 6.17 nM (active)
